Experimental data taken from PMC10458458, “Characterization of Anticancer Effects of the Analogs of DJ4, a Novel Selective Inhibitor of ROCK and MRCK Kinases” (Pharmaceuticals, 2023).

How the values were obtained:
A549/ATCC = assay: NCI-60 screen (SRB); assay type: cell-based, human; details: A549/ATCC (Non-Small Cell Lung Cancer), 10 µM, 48 h; negative = cell death vs time zero
In short: (§1)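 Percent growth, referenced to a time-zero count and untreated control, is derived from sulphorhodamine B protein staining. Compounds are tested at one concentration, 10 µM, for 48 h.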

OVCAR-8 = assay: NCI-60 screen (SRB); assay type: cell-based, human; details: OVCAR-8 (Ovarian Cancer), 10 µM, 48 h; negative = cell death vs time zero
In short: as §1

HCT-116 = assay: NCI-60 screen (SRB); assay type: cell-based, human; details: HCT-116 (Colon Cancer), 10 µM, 48 h; negative = cell death vs time zero
In short: as §1

K-562 = assay: NCI-60 screen (SRB); assay type: cell-based, human; details: 10 µM, 48 h; for percent cell growth: K-562 (Leukemia), negative = cell death vs time zero; for increase in cell number: K-562 (leukemia)
In short: as §1

T-47D = assay: NCI-60 screen (SRB); assay type: cell-based, human; details: T-47D (Breast Cancer), 10 µM, 48 h; negative = cell death vs time zero
In short: as §1

ROCK2 = ROCK2 (Homo sapiens, UniProt O75116); assay: Cell-free biochemical kinase activity assay (pMYPT1 immunoblot); design: purchased Invitrogen
ROCK2, sequence (O75116 whole entry): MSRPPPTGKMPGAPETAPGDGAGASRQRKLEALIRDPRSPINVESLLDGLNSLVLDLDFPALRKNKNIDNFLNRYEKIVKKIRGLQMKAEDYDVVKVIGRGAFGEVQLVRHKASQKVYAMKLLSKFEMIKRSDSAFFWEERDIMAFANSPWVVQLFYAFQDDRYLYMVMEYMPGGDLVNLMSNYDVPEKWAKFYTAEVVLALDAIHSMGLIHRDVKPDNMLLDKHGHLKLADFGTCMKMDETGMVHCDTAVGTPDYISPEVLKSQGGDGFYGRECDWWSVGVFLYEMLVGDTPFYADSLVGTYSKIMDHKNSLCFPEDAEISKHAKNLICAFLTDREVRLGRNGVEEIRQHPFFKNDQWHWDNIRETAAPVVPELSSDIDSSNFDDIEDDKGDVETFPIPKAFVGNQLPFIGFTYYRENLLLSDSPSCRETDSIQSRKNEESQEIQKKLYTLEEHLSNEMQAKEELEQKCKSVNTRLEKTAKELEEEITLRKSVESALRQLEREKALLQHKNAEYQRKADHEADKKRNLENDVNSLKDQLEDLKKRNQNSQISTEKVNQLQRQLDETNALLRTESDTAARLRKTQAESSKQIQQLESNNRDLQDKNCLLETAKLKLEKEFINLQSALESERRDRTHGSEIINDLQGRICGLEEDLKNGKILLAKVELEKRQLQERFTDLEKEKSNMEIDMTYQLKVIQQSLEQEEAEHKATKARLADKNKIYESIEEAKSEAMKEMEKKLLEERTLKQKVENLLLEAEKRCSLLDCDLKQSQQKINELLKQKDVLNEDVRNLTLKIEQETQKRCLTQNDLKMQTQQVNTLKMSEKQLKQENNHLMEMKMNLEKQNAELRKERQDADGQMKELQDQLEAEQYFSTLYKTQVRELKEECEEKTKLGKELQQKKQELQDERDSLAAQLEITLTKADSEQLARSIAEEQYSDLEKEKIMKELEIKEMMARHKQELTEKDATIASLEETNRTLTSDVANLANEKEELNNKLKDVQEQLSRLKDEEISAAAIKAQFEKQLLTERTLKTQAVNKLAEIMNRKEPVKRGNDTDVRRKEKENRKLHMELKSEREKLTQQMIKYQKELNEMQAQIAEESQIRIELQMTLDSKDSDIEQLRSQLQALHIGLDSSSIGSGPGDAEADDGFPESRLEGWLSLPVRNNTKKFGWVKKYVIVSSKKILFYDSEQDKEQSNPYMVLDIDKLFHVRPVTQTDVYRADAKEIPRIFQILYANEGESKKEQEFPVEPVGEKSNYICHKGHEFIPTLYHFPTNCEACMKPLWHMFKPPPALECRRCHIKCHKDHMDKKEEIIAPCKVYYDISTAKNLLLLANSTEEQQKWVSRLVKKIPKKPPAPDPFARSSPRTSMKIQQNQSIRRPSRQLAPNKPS
Experimental: (§2) Cell-free biochemical kinase inhibitory activity of these compounds was evaluated at 1 µM concentration using the previously described ROCK1 kinase activity assay. Among the 27 analogs, we identified four analogs (DJ110, DJ-Allyl, DJE4, and DJ-Morpholine) with >50% inhibition of MYPT1 phosphorylation (Supplementary Figure S1). These four compounds were selected for further evaluation at 1 µM and 0.1 µM for their in vitro inhibitory activity against ROCK1, ROCK2, MRCKα, and MRCKβ kinases.
(§3) Cell-free biochemical kinase activity was assayed using published procedures. Briefly, recombinant ROCK1 (9.48 nM) or ROCK2 (8.26 nM; Invitrogen, Waltham, MA, USA) was incubated in the presence of 0.1 and 1 µM concentrations of DJ4 analogs or DMSO in ROCK-assay buffer at room temperature (RT) for 10 min. MRCKα and MRCKβ (2 ng/µL; Invitrogen) assays were performed in the assay buffer recommended by the manufacturer. Recombinant MYPT1 (20 ng/µL; Millipore) and ATP (5 µM) were added to initiate the reaction. The reaction was incubated at 30 °C for 20 min. Western blot analysis of these samples for phosphorylation of MYPT1 was performed as per the method mentioned in our earlier publication. Briefly, an equal amount of sample was loaded on Bis-Tris gel (Novex, Life Technologies, Carlsbad, CA, USA), proteins were electrophoresed and transferred to PVDF membranes. The blots were probed with anti-pMYPT1 (Thr696) or anti-MYPT1 (Millipore) antibodies.

MRCKα = target: T1, MRCKα (Homo sapiens, UniProt Q5VT25); assay: as above
T1 construct: purchased Invitrogen
T1 sequence (Q5VT25 whole entry): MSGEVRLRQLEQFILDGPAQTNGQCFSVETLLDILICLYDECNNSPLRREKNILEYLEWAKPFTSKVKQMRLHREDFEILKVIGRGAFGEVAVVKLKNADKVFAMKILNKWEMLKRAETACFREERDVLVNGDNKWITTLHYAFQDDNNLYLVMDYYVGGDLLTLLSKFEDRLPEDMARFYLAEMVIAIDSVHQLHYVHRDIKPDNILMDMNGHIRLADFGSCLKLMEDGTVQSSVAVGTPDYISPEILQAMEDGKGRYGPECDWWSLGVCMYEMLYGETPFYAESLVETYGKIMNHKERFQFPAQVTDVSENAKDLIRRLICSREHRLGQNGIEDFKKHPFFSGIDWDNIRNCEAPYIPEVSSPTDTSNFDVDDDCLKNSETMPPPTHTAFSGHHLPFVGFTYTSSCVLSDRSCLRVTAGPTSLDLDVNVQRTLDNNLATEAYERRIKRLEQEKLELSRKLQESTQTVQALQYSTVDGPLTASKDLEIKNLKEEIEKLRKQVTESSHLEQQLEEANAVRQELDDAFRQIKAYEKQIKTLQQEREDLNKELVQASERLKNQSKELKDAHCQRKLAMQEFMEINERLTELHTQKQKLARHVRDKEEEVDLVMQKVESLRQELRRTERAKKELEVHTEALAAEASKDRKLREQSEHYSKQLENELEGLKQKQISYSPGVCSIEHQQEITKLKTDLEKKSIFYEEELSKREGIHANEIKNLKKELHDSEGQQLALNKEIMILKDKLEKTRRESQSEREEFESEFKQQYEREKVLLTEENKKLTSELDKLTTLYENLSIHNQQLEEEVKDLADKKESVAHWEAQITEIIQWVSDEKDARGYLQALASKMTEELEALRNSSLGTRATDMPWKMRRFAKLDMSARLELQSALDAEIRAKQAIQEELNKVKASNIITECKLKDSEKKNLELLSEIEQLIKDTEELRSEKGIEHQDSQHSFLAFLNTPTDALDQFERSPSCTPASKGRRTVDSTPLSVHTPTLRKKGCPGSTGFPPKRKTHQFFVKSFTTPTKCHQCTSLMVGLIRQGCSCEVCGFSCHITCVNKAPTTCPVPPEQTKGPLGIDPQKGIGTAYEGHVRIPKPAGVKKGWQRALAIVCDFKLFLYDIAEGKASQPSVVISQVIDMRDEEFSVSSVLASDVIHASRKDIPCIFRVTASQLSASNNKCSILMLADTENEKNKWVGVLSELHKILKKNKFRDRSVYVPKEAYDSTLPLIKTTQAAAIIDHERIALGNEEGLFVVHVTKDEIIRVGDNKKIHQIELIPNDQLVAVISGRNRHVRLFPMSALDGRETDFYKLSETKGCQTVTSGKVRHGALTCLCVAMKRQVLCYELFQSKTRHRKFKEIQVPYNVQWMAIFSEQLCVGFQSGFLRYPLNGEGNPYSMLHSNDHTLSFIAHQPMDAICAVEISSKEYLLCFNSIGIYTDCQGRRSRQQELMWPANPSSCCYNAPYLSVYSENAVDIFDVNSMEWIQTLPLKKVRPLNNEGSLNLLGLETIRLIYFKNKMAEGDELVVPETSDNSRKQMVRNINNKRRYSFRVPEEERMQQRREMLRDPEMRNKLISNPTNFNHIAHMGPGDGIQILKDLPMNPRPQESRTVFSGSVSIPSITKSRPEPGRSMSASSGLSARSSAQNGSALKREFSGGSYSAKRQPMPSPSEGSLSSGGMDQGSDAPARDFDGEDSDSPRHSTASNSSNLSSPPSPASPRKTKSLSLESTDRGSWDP
Experimental: as §2, §3

MRCKβ = target: T2, MRCKβ (Homo sapiens, UniProt Q9Y5S2); assay: as above; details: 1 µM
T2 construct: purchased Invitrogen
T2 sequence (Q9Y5S2 whole entry): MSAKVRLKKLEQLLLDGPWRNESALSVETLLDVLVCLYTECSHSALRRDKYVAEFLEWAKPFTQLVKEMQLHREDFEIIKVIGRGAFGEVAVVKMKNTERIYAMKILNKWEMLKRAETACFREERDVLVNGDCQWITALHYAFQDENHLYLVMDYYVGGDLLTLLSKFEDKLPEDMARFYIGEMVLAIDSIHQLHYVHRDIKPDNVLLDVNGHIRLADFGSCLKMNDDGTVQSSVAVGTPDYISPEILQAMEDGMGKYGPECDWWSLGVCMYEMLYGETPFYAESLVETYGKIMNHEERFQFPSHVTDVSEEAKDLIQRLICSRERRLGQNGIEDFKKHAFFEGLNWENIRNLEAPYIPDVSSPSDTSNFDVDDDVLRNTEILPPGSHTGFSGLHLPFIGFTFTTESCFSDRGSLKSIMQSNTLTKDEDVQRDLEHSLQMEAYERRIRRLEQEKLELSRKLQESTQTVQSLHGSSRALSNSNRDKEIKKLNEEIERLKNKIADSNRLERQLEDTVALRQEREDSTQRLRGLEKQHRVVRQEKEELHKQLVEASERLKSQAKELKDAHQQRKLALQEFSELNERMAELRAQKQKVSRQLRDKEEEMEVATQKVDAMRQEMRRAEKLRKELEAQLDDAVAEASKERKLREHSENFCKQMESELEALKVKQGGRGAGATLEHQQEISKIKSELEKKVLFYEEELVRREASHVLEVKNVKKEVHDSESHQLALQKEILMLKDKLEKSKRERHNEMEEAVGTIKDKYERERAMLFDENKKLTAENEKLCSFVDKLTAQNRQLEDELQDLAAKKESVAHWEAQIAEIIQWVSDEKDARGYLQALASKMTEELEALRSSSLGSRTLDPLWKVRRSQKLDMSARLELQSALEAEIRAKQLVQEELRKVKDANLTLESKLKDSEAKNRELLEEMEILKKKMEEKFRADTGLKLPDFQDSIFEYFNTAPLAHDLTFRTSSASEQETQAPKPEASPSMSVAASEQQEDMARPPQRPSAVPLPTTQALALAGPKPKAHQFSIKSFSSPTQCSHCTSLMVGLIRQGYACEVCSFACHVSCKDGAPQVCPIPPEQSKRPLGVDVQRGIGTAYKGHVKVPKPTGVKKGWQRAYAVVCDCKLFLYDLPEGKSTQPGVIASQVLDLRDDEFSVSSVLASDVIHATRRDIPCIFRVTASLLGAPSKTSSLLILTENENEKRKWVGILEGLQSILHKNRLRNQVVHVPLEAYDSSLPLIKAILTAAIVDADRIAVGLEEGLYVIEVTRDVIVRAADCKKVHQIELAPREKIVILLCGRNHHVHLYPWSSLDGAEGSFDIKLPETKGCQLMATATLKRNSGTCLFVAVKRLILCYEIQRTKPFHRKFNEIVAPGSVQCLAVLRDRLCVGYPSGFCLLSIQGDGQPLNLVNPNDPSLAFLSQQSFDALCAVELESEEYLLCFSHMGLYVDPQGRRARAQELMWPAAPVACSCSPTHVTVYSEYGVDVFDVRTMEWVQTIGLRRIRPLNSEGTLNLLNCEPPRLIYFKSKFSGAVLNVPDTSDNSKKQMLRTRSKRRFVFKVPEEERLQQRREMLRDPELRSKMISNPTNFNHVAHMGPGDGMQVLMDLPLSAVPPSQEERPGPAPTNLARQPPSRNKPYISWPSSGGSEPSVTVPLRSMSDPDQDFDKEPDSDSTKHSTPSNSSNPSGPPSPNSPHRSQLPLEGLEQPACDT
Experimental: as §2, §3

## Cl.O=C1NC(=NCCc2ccccc2)SC1=Cc1c[nH]c2ncccc12 (mixture of isomers) [DJ4-HCl]
A549/ATCC
  percent cell growth: 8.1%
OVCAR-8
  percent cell growth: 9.7%
HCT-116
  percent cell growth: 5.8%
K-562
  percent cell growth: 28.5%
T-47D
  percent cell growth: −1.3%

## O=C1N/C(=N\CCc2ccccc2)S/C1=C/c1c[nH]c2ncccc12 [DJ4]
A549/ATCC
  percent cell growth: 19.1%
OVCAR-8
  percent cell growth: 14.0%
HCT-116
  percent cell growth: 9.7%
K-562
  percent cell growth: 29.9%
T-47D
  percent cell growth: 2.6%
ROCK2; ROCK2, 0.1 µM
  inhibition of kinase activity (qualitative immunoblot): ineffective
ROCK2; ROCK2, 1 µM
  inhibition of kinase activity (qualitative immunoblot): significantly inhibit
MRCKα; 0.1 µM
  inhibition of kinase activity (qualitative immunoblot): ineffective
MRCKα; 1 µM
  inhibition of kinase activity (qualitative immunoblot): significantly inhibit
MRCKβ
  inhibition of kinase activity (qualitative immunoblot): significantly inhibit

## O=C1N/C(=N\Cc2ccccc2)S/C1=C/c1c[nH]c2ncccc12 [DJ110]
ROCK2; ROCK2, 0.1 µM
  inhibition of kinase activity (qualitative immunoblot): significantly inhibited
ROCK2; ROCK2, 1 µM
  inhibition of kinase activity (qualitative immunoblot): significantly inhibit
MRCKα; 0.1 µM
  inhibition of kinase activity (qualitative immunoblot): significantly inhibited
MRCKα; 1 µM
  inhibition of kinase activity (qualitative immunoblot): significantly inhibit
MRCKβ
  inhibition of kinase activity (qualitative immunoblot): significantly inhibit

## C=CC/N=C1\NC(=O)/C(=C\c2c[nH]c3ncccc23)S1 [DJ-Allyl]
A549/ATCC
  percent cell growth: 13.2%
OVCAR-8
  percent cell growth: 10.7%
HCT-116
  percent cell growth: 6.3%
K-562
  percent cell growth: 42.1%
  increase in cell number: ~ 40%
T-47D
  percent cell growth: −8.7%
ROCK2; ROCK2, 1 µM
  inhibition of kinase activity (qualitative immunoblot): almost completely inhibited
MRCKα; 1 µM
  inhibition of kinase activity (qualitative immunoblot): minimal inhibition
MRCKβ
  inhibition of kinase activity (qualitative immunoblot): minimal inhibition

## O=C1N/C(=N\CCN2CCOCC2)S/C1=C/c1c[nH]c2ncccc12 [DJ-Morpholine]
ROCK2; ROCK2, 1 µM
  inhibition of kinase activity (qualitative immunoblot): almost completely inhibited
MRCKα; 1 µM
  inhibition of kinase activity (qualitative immunoblot): minimal inhibition
MRCKβ
  inhibition of kinase activity (qualitative immunoblot): minimal inhibition

## CC/N=C1\NC(=O)/C(=C\c2c[nH]c3ncccc23)S1 [DJE4]
A549/ATCC
  percent cell growth: 11.1%
OVCAR-8
  percent cell growth: 6.3%
HCT-116
  percent cell growth: 4.0%
K-562
  percent cell growth: 26.3%
  increase in cell number: 26%
T-47D
  percent cell growth: −9.7%
ROCK2; ROCK2, 1 µM
  inhibition of kinase activity (qualitative immunoblot): almost completely inhibited
MRCKα; 1 µM
  inhibition of kinase activity (qualitative immunoblot): minimal inhibition
MRCKβ
  inhibition of kinase activity (qualitative immunoblot): minimal inhibition
